Among the test systems are A498; A549; DU-145; HCC 2998; HCT-116; HL-60; HOP-62; IGROV-1; KM12; MDA-MB-231; MDA-MB-435; MOLT-4; NCI/ADR-RES; OVCAR-4; OVCAR-5; SF-268; SF-295; SN12C; UO-31; HOP-92.
Common to all, as to test: DTP human tumour cell line panel, 48 h

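Each compound was tested at five concentrations against cells in 96-well plates for 48 hours. The concentration for 50% growth inhibition is given as GI50.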 The source made the active and inactive calls. No stated cut-off is given here; in the data, active = GI50 up to about 1.1 µM and inactive = higher.

Consider `COc1ccc(C2=CC(c3ccc4c(c3)OCO4)c3c(c4ccccc4oc3=O)O2)cc1OC` (stereo unspecified), for which the concentration for 50% growth inhibition (GI50) (commonly the concentration at which growth is held to half of that of the control) is 0.91 µM (active) in the test on A498; 2.78 µM (inactive) with A549; 2.25 µM (inactive) in the test on DU-145; 1.46 µM (inactive) in the test on HCC 2998; 0.824 µM (active) with HCT-116; 0.351 µM (active) in the test on HL-60. Also, the GI50 with HOP-62 was 1.44 µM (inactive); in the test on IGROV-1 it was 0.743 µM (active); in the test with KM12, 1.76 µM (inactive); in the test with MDA-MB-231, 4.02 µM (inactive); with MDA-MB-435, 0.366 µM (active); with MOLT-4 it was 3.42 µM (inactive). Further, the GI50 was 1.41 µM (inactive) with NCI/ADR-RES; 98.4 µM (inactive) in the test on OVCAR-4; 4.85 µM (inactive) with OVCAR-5; 5.07 µM (inactive) with SF-268; 0.374 µM (active) with SF-295; 5.56 µM (inactive) in the test with SN12C. The GI50 in the test with UO-31 is 2.55 µM (inactive).
As for `CC(C)=NN/C(=N\c1ccc(Cl)cc1)NS(=O)(=O)c1ccc(C)cc1`, the GI50 with A498 is 33 µM (inactive); with A549, 62.4 µM (inactive); with DU-145, 47.9 µM (inactive); with HCT-116, 76.4 µM (inactive); in the test on HL-60, 97.5 µM (inactive); in the test on HOP-62, 69 µM (inactive). Also, the GI50 with HOP-92 is 38.8 µM (inactive); in the test on IGROV-1, 77.4 µM (inactive); in the test with KM12, 85.7 µM (inactive); in the test on MDA-MB-231, 73.1 µM (inactive); with MDA-MB-435 it was 92.9 µM (inactive); with MOLT-4 it was 41.5 µM (inactive). The GI50 with NCI/ADR-RES was 69.3 µM (inactive); in the test on OVCAR-4, 51.1 µM (inactive); with OVCAR-5 it was > 100 µM (inactive); with SF-268 it was 60 µM (inactive); in the test on SF-295, 35.2 µM (inactive); in the test with SN12C, 84.5 µM (inactive). Besides, the GI50 with UO-31 is > 100 µM (inactive).
`Cc1nc2ccc(Cl)cc2c2c1CCS2`: the GI50 with A498 was 22 µM (inactive); with A549, 67 µM (inactive); in the test on DU-145, 91.2 µM (inactive); in the test with HCC 2998, 77.4 µM (inactive); in the test on HCT-116, 41.1 µM (inactive); in the test on HL-60, 27.2 µM (inactive). The GI50 in the test on HOP-62 is > 100 µM (inactive); in the test on IGROV-1, 47.8 µM (inactive); in the test on KM12, > 100 µM (inactive); with MDA-MB-231, 49.2 µM (inactive); with MDA-MB-435 it was 68.5 µM (inactive); with MOLT-4 it was 19.5 µM (inactive). Also, the GI50 in the test with NCI/ADR-RES is 51.4 µM (inactive); in the test on OVCAR-4, 26.8 µM (inactive); in the test with OVCAR-5, > 100 µM (inactive); with SF-268 it was 56.5 µM (inactive); in the test with SF-295 it was > 100 µM (inactive); in the test on SN12C, 42 µM (inactive). In the test with UO-31, the GI50 was 4.09 µM (inactive).
For the compound `CCCCOCn1c(=O)[nH]c(=O)c2ccccc21`, the GI50 with A498 is > 100 µM (inactive); with A549, > 100 µM (inactive); with DU-145 it was > 100 µM (inactive); with HCT-116, > 100 µM (inactive); with HL-60 it was 68.4 µM (inactive); in the test on HOP-92, > 100 µM (inactive). Besides, the GI50 was 49 µM (inactive) with IGROV-1; > 100 µM (inactive) in the test on KM12; 33.3 µM (inactive) with MDA-MB-231; > 100 µM (inactive) in the test with MDA-MB-435; > 100 µM (inactive) in the test on MOLT-4; 22.8 µM (inactive) in the test with NCI/ADR-RES. Also, the GI50 with OVCAR-4 was 35.7 µM (inactive); in the test with OVCAR-5, > 100 µM (inactive); in the test with SF-295, > 100 µM (inactive); in the test on SN12C, > 100 µM (inactive); in the test with UO-31 it was 13.1 µM (inactive).
For `Cn1cnc(C(N)=[Se])c1N`, the GI50 in the test on A498 was 16.4 µM (inactive); in the test with A549, 1.71 µM (inactive); in the test with DU-145 it was 4.1 µM (inactive); in the test with HCC 2998, 15.4 µM (inactive); with HCT-116 it was 3.69 µM (inactive); in the test with HOP-62 it was 2.46 µM (inactive). In addition, the GI50 is 6.56 µM (inactive) with HOP-92; 1.33 µM (inactive) in the test on IGROV-1; 2.33 µM (inactive) in the test on KM12; 2.07 µM (inactive) with MDA-MB-231; 5.26 µM (inactive) in the test on MDA-MB-435; 1.89 µM (inactive) in the test on NCI/ADR-RES. In addition, the GI50 in the test with OVCAR-5 is 3.56 µM (inactive); with SF-268, 1.95 µM (inactive); in the test on SF-295, 0.244 µM (active); in the test with SN12C, 2.29 µM (inactive); in the test on UO-31, 2.07 µM (inactive).
On to `COC(=O)C1=C(C(=O)OC)SC(=C2SC3=C(SC(=C4SCCS4)S3)S2)S1`, for which the GI50 in the test with A498, with A549, in the test with DU-145, in the test on HCT-116, in the test on HL-60 and in the test on HOP-62 was > 100 µM (inactive) each time. Also, the GI50 in the test on HOP-92, in the test with IGROV-1, in the test with KM12, in the test on MDA-MB-231, with MDA-MB-435 and in the test with MOLT-4 was > 100 µM (inactive) in each case. Further, the GI50 with NCI/ADR-RES, with OVCAR-5, with SF-268, in the test with SF-295, in the test on SN12C and with UO-31 was > 100 µM (inactive) in each case.
For the compound `Cn1nc2ccc(Nc3cc(=O)[nH]c4ccc5nn(C)nc5c34)cc2n1`, the GI50 in the test with A498, with A549, in the test on DU-145, with HCC 2998, in the test on HCT-116 and in the test on HOP-62 was > 100 µM (inactive) throughout. In addition, the GI50 with HOP-92 was > 100 µM (inactive); in the test with IGROV-1 it was 50.5 µM (inactive); with KM12 it was > 100 µM (inactive); in the test with MDA-MB-231, > 100 µM (inactive); in the test with MDA-MB-435, > 100 µM (inactive); with MOLT-4 it was 82.2 µM (inactive). The GI50 in the test with NCI/ADR-RES, in the test on OVCAR-4, in the test with OVCAR-5, in the test with SF-268, in the test on SF-295 and in the test on SN12C was > 100 µM (inactive) in each case. Moreover, the GI50 with UO-31 was > 100 µM (inactive).
As to `COc1cc(Br)cc2cc(-c3cn4c(n3)sc3ccccc34)c(=O)oc12`, the GI50 was 21.2 µM (inactive) in the test with A498; 36.5 µM (inactive) with A549; 17.7 µM (inactive) with DU-145; 21.3 µM (inactive) in the test with HCT-116; 15.6 µM (inactive) in the test on HL-60; 22.7 µM (inactive) in the test with HOP-62. For the same compound, the GI50 with HOP-92 is 14.7 µM (inactive); in the test on IGROV-1 it was 14.7 µM (inactive); in the test with KM12, 30.4 µM (inactive); in the test on MDA-MB-231, 21.2 µM (inactive); in the test with MDA-MB-435 it was 24.4 µM (inactive); in the test with MOLT-4, 20.9 µM (inactive). For the same compound, the GI50 was 30.7 µM (inactive) with NCI/ADR-RES; 26.1 µM (inactive) in the test with OVCAR-4; 39 µM (inactive) in the test with OVCAR-5; 20 µM (inactive) in the test with SF-268; 19.8 µM (inactive) with SF-295; 24.7 µM (inactive) in the test on SN12C. The GI50 in the test with UO-31 is 18.7 µM (inactive).
As to `O[C@H]1[C@H](O)[C@@H](O)[C@H](O)[C@@H](O)[C@H]1O` [INOSITOL], the GI50 with A498, in the test on A549, with DU-145, in the test with HCC 2998, in the test on HCT-116 and in the test on HOP-62 was > 1000 µM (inactive) in each case. Further, the GI50 in the test on HOP-92 was > 1000 µM (inactive); in the test with IGROV-1, > 1000 µM (inactive); with MDA-MB-231, > 1000 µM (inactive); in the test on MDA-MB-435, > 1000 µM (inactive); with MOLT-4, 154 µM (inactive); in the test with NCI/ADR-RES, > 1000 µM (inactive). Also, the GI50 in the test with OVCAR-4, in the test with OVCAR-5, in the test on SF-268, in the test on SN12C and with UO-31 was > 1000 µM (inactive) throughout.
With `OC[C@H]1O[C@@H](Oc2cc(O)cc(/C=C/c3ccc(O)cc3)c2)[C@H](O)[C@@H](O)[C@@H]1O` [PICEID], the GI50 with A498, in the test with A549, with DU-145, in the test with HCT-116, in the test on HL-60 and in the test on HOP-62 was > 100 µM (inactive) in each case. For the same compound, the GI50 in the test on HOP-92, in the test on IGROV-1, in the test on KM12, with MDA-MB-231, in the test with MDA-MB-435 and in the test with MOLT-4 was > 100 µM (inactive) in each case. In addition, the GI50 with NCI/ADR-RES, in the test with OVCAR-4, with OVCAR-5, with SF-295, in the test with SN12C and in the test on UO-31 was > 100 µM (inactive) throughout.
Consider `O=C(/C=C/c1ccc(Oc2cc(C(=O)/C=C/c3ccc(O)cc3)c(O)cc2O)cc1)c1ccc(O)cc1O` [RHUSCHALCONE II], for which the GI50 in the test on A498 is 2.65 µM (inactive); in the test with A549, 15.5 µM (inactive); in the test on DU-145, 3.38 µM (inactive); with HCT-116, 2.25 µM (inactive); in the test with HL-60, 4.14 µM (inactive); in the test with HOP-62, 5.38 µM (inactive). The GI50 with HOP-92 is 16.5 µM (inactive); in the test with IGROV-1 it was 3.38 µM (inactive); in the test with KM12, 2.15 µM (inactive); with MDA-MB-231, 5.08 µM (inactive); in the test on MDA-MB-435, 4.15 µM (inactive); in the test with MOLT-4, 4.09 µM (inactive). Further, the GI50 in the test on NCI/ADR-RES was 3.85 µM (inactive); in the test with OVCAR-4 it was 4.98 µM (inactive); with OVCAR-5 it was 5.27 µM (inactive); in the test on SF-268 it was 4.83 µM (inactive); in the test on SF-295 it was 5.96 µM (inactive); with SN12C it was 4.41 µM (inactive). Besides, the GI50 with UO-31 was 6.3 µM (inactive).
